# Data as given in patent US4492757A, “Process for preparing L-threonine” (Denki Kagaku Kogyo Kabushiki Kaisha, priority 1981, dated 1985).
# Experiments:
# D-threonine-aldolase = assay: Agents inhibiting, activating or stabilizing the activity of the novel enzyme; format: biochemical
# L-allothreonine-aldolase = assay: Inhibitants, stabilizers and coenzyme of L-allothreonine-aldolase; format: biochemical
SMILES,effect of the agent on the activity of the novel enzyme (D-threonine-aldolase),effect of the agent on L-allothreonine-aldolase (L-allothreonine-aldolase),coenzyme (L-allothreonine-aldolase)
O[C@H](CS)[C@H](O)CS (racemic) [dithiothreitol],activated and stabilized,Stabilizers,
Cc1ncc(COP(=O)(O)O)c(C=O)c1O [pyridoxal-5'-phosphate],,,Coenzyme
[Mg+2] [Mg^2+],activated and stabilized,,
[Mn+2] [Mn^2+],activated and stabilized,,
[Hg+2] [Hg^2+],inhibited,Inhibitants,
O=S([O-])[O-].[Na+].[Na+] [sodium sulfite],activated and stabilized,Stabilizers,
NO [hydroxylamine],inhibited,,
O=C(O)c1cc[c]([Hg][Cl])cc1 [p-chloromercuribenzoate],inhibited,,
O=S([O-])O.[Na+] [sodium hydrogen sulfite],activated and stabilized,,

# The remaining lines, values ahead:
effect of the agent on the activity of the novel enzyme (D-threonine-aldolase),effect of the agent on L-allothreonine-aldolase (L-allothreonine-aldolase),coenzyme (L-allothreonine-aldolase),SMILES
activated and stabilized,,,[Fe+2] [Fe^2+]
activated and stabilized,Stabilizers,,OCCS [mercaptoethanol]
inhibited,,,[Zn+2] [Zn^2+]
inhibited,,,[Pd+2] [Pd^2+]
activated and stabilized,,,[Co+2] [Co^2+]
inhibited,Inhibitants,,[Ag+] [Ag^+]
inhibited,Inhibitants,,[Cu+2] [Cu^2+]
